From patent US20170348337A1, “MULTIFUNCTIONAL MEMBRANE-ACTIVE AMINOGLYCOSIDE-PEPTIDE CONJUGATES” (priority 2014, published 2017)
Converted amounts (≈) assume the structure as drawn. Like-named read-outs stand apart in the source and are kept apart here. Residues, ends and D or L forms follow the SMILES beside them. No end group written: not given here. Tobramycin = aminoglycoside, conjugated at the peptide N-terminus; Neomycin = aminoglycoside, conjugated at the peptide N-terminus

Assays:
[1] = cited from earlier work
[2] = system: E. coli; assay: antimicrobial activity (MIC) of P-L-A conjugates; type: cell-based
[3] = system: P. aeruginosa; assay: antimicrobial activity (MIC) of P-L-A conjugates; type: cell-based; conditions: for MIC: stationary
[4] = system: E. coli persisters; assay: E. coli persister killing assay, pentobra plus adjuvant; type: cell-based; conditions: 10 mM arabinose; 1.5 hours
Description: Bacterial persisters were prepared essentially as described above, by growing an E. coli culture for 18-24 hours, at which point 100 μg/ml ampicillin was added for a 4-hour incubation to kill non-persisters. The cells were washed with M9 salts without carbon source, and subsequently diluted with M9 salts to an appropriate cell count for the killing assay. Approximately 10^6 E. coli cells per well were placed in a total volume of 100 μl in a 96-well plate on a shaker at 37° C. for 1.5 hours in the presence of each the following, respectively: Pentobra, Pentobra-plus-glucose (as adjuvant), tobramycin, tobramycin-plus-glucose (as adjuvant). A concentration series was used with 50, 25, 12.5, 6.25 and 0 μM for pentobra or tobramycin, and correspondingly 10, 5, 2.5, 1.25 and 0 mM for glucose. Incubation, dilution, and plating for colony assay determination were as described above. In a separate experiment, approximately 10^6 E. coli cells per well were placed in a total volume of 100 μl in a 96-well plate at 37° C. for 1.5 hours in the presence of each the following, respectively: pentobra, pentobra-plus-10 mM arabinose (as adjuvant), tobramycin, tobramycin-plus-10 mM arabinose (as adjuvant).
Persister cells were isolated and experiments to test for bactericidal activity were performed as described in Example 7 above.

[5] = system: NIH/3T3 cells; assay: CellTox Green cytotoxicity assay; type: cell-based, mouse; conditions: concentrations up to 100 μM; 8 h incubation
Description: CellTox™ Green assay. The cytotoxicity of Pentobra was investigated on NIH/3T3 cells (ATCC) using CellTox™ Green assay (Promega, United States of America). Cells were seeded in a 96 well plate at a concentration of 2.5×10^3 cells/well. 100 μL of DMEM media were added to each well containing 0.2% CellTox green dye and varying concentrations of Pentobra, CPP or tobramycin and incubated for 8 and 24 h before the plate was read using an excitation wavelength of 485 nm and emission filter of 535 nm on a microplate reader (Beckman Coulter, DTX 880 Multimode Detector). A lysis solution, known to be toxic to the cells, was used as a positive control which represented the maximum dead cell signal obtainable from non-proliferating cells. The untreated cell population represented the maximal negative control signal obtainable at the end of an exposure period. The fluorescence values were normalized (from positive and negative controls) and converted to corresponding viability values.

[6] = system: Vancomycin-Sensitive Enterococci (VSE); assay: organism not typed; type: cell-based
From the text: (§1) Pentobra was screened against a broad panel of microbial pathogens, including strains of E. coli, MRSA, Klebsiella (Kleb), Acinetobacter (AcB), Vancomycin-Sensitive Enterococci (VSE) and Vancomycin-Resistant Enterococci (VRE), and specifically including E. faecalis samples. […] The experimenter reported the minimum inhibitory concentration (MIC) in mass units per unit volume (μg/mL) for each compound, and MIC data were converted into molar concentrations (μM) due to the large difference between the molecular weight of tobramycin (467.5 g/mol) and Pentobra (2277 g/mol).

[7] = system: S. aureus; assay: antimicrobial activity (MIC) of P-L-A conjugates; type: cell-based
[8] = system: keratinocytes; assay: cell viability assay (MTT section, CellTiter-GLO); type: cell-based, human; conditions: 26 μM; over 72 hr
Description: (§2) Cell proliferation experiments were performed in 96-well plates (5 replicates). 26 μM of Pentobra and Tobramycin treatments were initiated at 24 hours post-seeding for 3 days. Stocks and dilutions of PLX4032/vemurafenib (Plexxikon) and AZD6244/selumetenib (Selleck Chemicals) were made in dimethyl sulfoxide (DMSO). Three cell types (PBMCs, Keratinocytes and Sebocytes cell lines) were tested. Cells were quantified using CellTiter-GLO Luminescence (Promega) following the manufacturer's recommendations.

[9] = system: Peripheral Blood Mononuclear Cells (PBMCs); assay: cell viability assay (MTT section, CellTiter-GLO); type: cell-based, human; conditions: 26 μM; over 72 hr
Description: as §2

[10] = system: sebocytes; assay: cell viability assay (MTT section, CellTiter-GLO); type: cell-based, human; conditions: 26 μM; over 72 hr
Description: as §2

[11] = system: Acinetobacter (AcB); assay: microbe, parasite or virus in culture; type: cell-based; conditions: isolate AcB, PM1434
From the text: as §1

[12] = system: Vancomycin-Resistant Enterococci (VRE); assay: microbe, parasite or virus in culture; type: cell-based
From the text: as §1

[13] = system: E. coli; assay: microbe, parasite or virus in culture; type: cell-based
From the text: as §1

[14] = system: MRSA; assay: microbe, parasite or virus in culture; type: cell-based; conditions: isolate MRSA
From the text: as §1

[15] = system: Klebsiella (Kleb); assay: microbe, parasite or virus in culture; type: cell-based; conditions: isolate Kleb, W6921701-1
From the text: as §1

[16] = system: NIH/3T3 cells; assay: LIVE/DEAD viability/cytotoxicity assay; conditions: 100 μM; 8 h
Description: The effect of Pentobra on the plasma membrane integrity was investigated on NIH/3T3 cells using the Live/Dead® Viability/Cytotoxicity Kit (Molecular Probes). Briefly, 50,000 cells/well were incubated in a 24-well plate and treated with 100 μM of tobramycin, Pen peptide or Pentobra for 8 h at 37° C. Then, the cells were stained with 100 μL of the live/Dead assay reagents (2 μM calcein and 4 μM ethidium homodimer), and incubated at 37° C. for 20 min. The labeled cells were counted using a Zeiss Axiovert Observer Z1 inverted fluorescent microscope (at least 160 cells were counted for each treatment).
In addition, the effect of Pentobra on the cell membrane integrity was evaluated using the LIVE/DEAD® cell viability assay. This assay simultaneously determined intracellular esterase activity and plasma membrane integrity using two distinct dyes: a) calcein, a membrane permeable polyanionic dye that must be hydrolyzed by intracellular esterases (dead cells lack active esterases) to produce a green fluorescence and b) ethidium homodimer, a membrane impermeable red fluorescent dye that can only penetrate cells with compromised membranes.

## NCC[C@H](O)C(=O)N[C@@H]1C[C@H](N)[C@@H](O[C@H]2O[C@H](CN)[C@@H](O)[C@H](O)[C@H]2O)[C@H](O)[C@H]1O[C@H]1O[C@H](CO)[C@@H](O)[C@H](N)[C@H]1O [amikacin]
[1]; aminoglycosides
  octanol→water partition coefficient Log P: −3.34

## Amphi Pentobra: Tobramycin-GWIRNQFRKIWQR [SEQ ID NO: 81], N-terminal conjugation
[2]
  MIC (μM) E. coli (mid-log): 3.12 μM
[3]
  MIC (μM) P. aeruginosa (mid-log): 12.5 μM

## NC[C@H]1O[C@H](O[C@H]2[C@H](O)[C@@H](O[C@H]3O[C@H](CO)[C@@H](O)[C@H](N)[C@H]3O)[C@H](N)C[C@@H]2N)[C@H](O)[C@@H](O)[C@@H]1O [kanamycin]
[1]; aminoglycosides
  octanol→water partition coefficient Log P: −4.55

## OC[C@H]1O[C@H](O[C@H]2O[C@H](CO)[C@@H](O)[C@H](O)[C@H]2O)[C@H](O)[C@@H](O)[C@@H]1O [trehalose]
[1]; sugars, Mazzobre et. al. 2005
  octanol→water partition coefficient Log P: −3.77

## NeoGP11: Neomycin-GPWWFKWPRLI [SEQ ID NO: 123], N-terminal conjugation
[3]
  MIC (μM) P. aeruginosa (mid-log): 12.5 μM
  MIC: 50 µM

## Reverse Pentobra: Tobramycin-GWRRNQFWIKIQR [SEQ ID NO: 95], N-terminal conjugation
[2]
  MIC (μM) E. coli (mid-log): 3.12 μM
[3]
  MIC (μM) P. aeruginosa (mid-log): 12.5 μM

## O=C[C@@H](O)[C@H](O)[C@H](O)CO [Arabinose, arabinose]
[4]
  effect on killing potency of pentobra: enhanced pentobra, but to a lesser extent

## OC[C@H]1O[C@@](CO)(O[C@H]2O[C@H](CO)[C@@H](O)[C@H](O)[C@H]2O)[C@@H](O)[C@@H]1O [sucrose]
[1]; sugars, Mazzobre et. al. 2005
  octanol→water partition coefficient Log P: −3.30

## [H]/N=C(/N)N[C@H]1[C@H](O)[C@@H](O)[C@H](O[C@@H]2O[C@@H](C)[C@](O)(C=O)[C@H]2O[C@@H]2O[C@@H](CO)[C@H](O)[C@@H](O)[C@@H]2NC)[C@@H](N/C(N)=N\[H])[C@@H]1O [streptomycin]
[1]; aminoglycosides
  octanol→water partition coefficient Log P: −2.53

## TobrGW12: Tobramycin-GWRNQIRKGWQR [SEQ ID NO: 135], N-terminal conjugation
[3]
  MIC (μM) P. aeruginosa (mid-log): 6.25 μM
  MIC: 12.5 µM

## CC[C@H](C)[C@H](NC(=O)[C@H](CCCCN)NC(=O)[C@@H](NC(=O)[C@H](CCC(N)=O)NC(=O)[C@H](CCCNC(=N)N)NC(=O)CCC(=O)OC[C@H]1O[C@H](O[C@@H]2[C@@H](O)[C@H](O[C@H]3O[C@H](CN)[C@@H](O)C[C@H]3N)[C@@H](N)C[C@H]2N)[C@H](O)[C@@H](N)[C@@H]1O)[C@@H](C)CC)C(=O)N[C@@H](Cc1c[nH]c2ccccc12)C(=O)N[C@@H](Cc1ccccc1)C(=O)N[C@@H](CCC(N)=O)C(=O)N[C@@H](CC(N)=O)C(=O)N[C@@H](CCCNC(=N)N)C(=O)N[C@@H](CCCNC(=N)N)C(=O)N[C@@H](Cc1c[nH]c2ccccc12)C(=O)O [Pentobra] (HELM PEPTIDE1{[NC[C@H]1O[C@H](O[C@H]2[C@H](O)[C@@H](O[C@H]3O[C@H](COC(=O)CCC(=O)[*:2])[C@@H](O)[C@H](N)[C@H]3O)[C@H](N)C[C@@H]2N)[C@H](N)C[C@@H]1O].R.Q.I.K.I.W.F.Q.N.R.R.W}$$$$V2.0)
[2]
  MIC (μM) E. coli (mid-log): 6.25 μM
[5]
  cytotoxic effect: did not show any cytotoxic effect
[6]; isolate S4895552, VSE, LZD-R
  MIC: 0.014 mM (≈ 31.9 µg/mL)
[6]; isolate W7171143,VSE
  MIC: 0.056 mM (≈ 128 µg/mL)
[6]; isolate W7214342,VSE
  MIC: 0.028 mM (≈ 63.9 µg/mL)
[6]; isolate X4540299, VSE
  MIC: 0.014 mM (≈ 31.9 µg/mL)
[7]
  MIC (μM) S. aureus (mid-log): 25 μM
[8]
  viability: did not affect the viability
[9]
  viability: did not affect the viability
[10]
  viability: did not affect the viability
[11]
  MIC: 7 µM (≈ 16 µg/mL)
[12]; isolate 24670, VRE^? (second entry)
  MIC: 0.014 mM (≈ 31.9 µg/mL)
[12]; isolate F6541102, VRE
  MIC: >0.056 mM
[12]; isolate H6926031, VRE*
  MIC: 0.014 mM (≈ 31.9 µg/mL)
[12]; isolate M6865034, VRE
  MIC: 0.014 mM (≈ 31.9 µg/mL)
[12]; isolate S3899836, VRE^? (second entry)
  MIC: 0.014 mM (≈ 31.9 µg/mL)
[12]; isolate VRE, 24670
  MIC: 0.014 mM (≈ 31.9 µg/mL)
[12]; isolate VRE, S3899836
  MIC: 0.014 mM (≈ 31.9 µg/mL)
[13]; isolate ATCC 25922, Ecoli (second entry)
  MIC: 4 µM (≈ 9.12 µg/mL)
[13]; isolate ATCC Ecoli, 25922 (first entry)
  MIC: 2 µM (≈ 4.56 µg/mL)
[13]; isolate Ecoli,YD461
  MIC: 7 µM (≈ 16 µg/mL)
[14]; F2806774
  MIC: 0.056 mM (≈ 128 µg/mL)
[14]; H2867813
  MIC: >0.056 mM
[15]
  MIC: 7 µM (≈ 16 µg/mL)
[16]
  cytotoxicity (percentage of red stained cells): no statistical difference in cytotoxicity
  plasma membrane integrity of eukaryotic cells: did not induce any loss of plasma membrane integrity
[3]
  MIC (μM) P. aeruginosa (mid-log): 6.25-12.5 μM
  MIC: 25 µM (≈ 57 µg/mL)

## Neo13: Neomycin-GFHGVKNLARRIL [SEQ ID NO: 109], N-terminal conjugation
[7]
  MIC (μM) S. aureus (mid-log): 12.5 μM
[3]
  MIC (μM) P. aeruginosa (mid-log): 12.5 μM
  MIC: 50 µM

## gentamycin
[1]; aminoglycosides
  octanol→water partition coefficient Log P: −2.47

## RQIKIWFQNRRW [Pen peptide]
[16]
  cytotoxicity (percentage of red stained cells): no statistical difference in cytotoxicity

## NC[C@@H]1O[C@H](O[C@H]2[C@@H](O)[C@H](O[C@@H]3[C@@H](O)[C@H](N)C[C@H](N)[C@H]3O[C@H]3O[C@H](CO)[C@@H](O)[C@H](O)[C@H]3N)O[C@@H]2CO)[C@H](N)[C@@H](O)[C@@H]1O [paromomycin]
[1]; aminoglycosides
  octanol→water partition coefficient Log P: −3.27

## neomycin
[1]; aminoglycosides
  octanol→water partition coefficient Log P: −3.65
[7]
  MIC (μM) S. aureus (mid-log): 1.56 μM
[3]
  MIC: 12.5 µM
